Source: patent US20240148648A1, “SUSTAINED RELEASE THERMOSETTING GELS COMPRISING ANESTHETIC DRUGS AND THE METHODS OF MAKING THE SAME” (Pacira Therapeutics, Inc., priority 2021, published 2024)
Converted amounts (≈) assume the structure as drawn.

Assays:
[1] = Rheological analysis of hydrogel formulations (CGT, onset temperature, max G′); format: physicochemical; conditions: compared to the vehicle
Text: PEG 400 was used as a co-solvent to further enhance solubility of the active in aqueous media and to decrease the gelation temperature to be close to but below body temperature. Rheological properties including critical gelation temperature (CGT), onset temperature, and elastic (G′) and viscous (G″) moduli were used in conjunction with visual and IVR experiments to analyze the impact of different formulation component compositions and concentrations on the suitability of the formulation in an extended-release postsurgical pain management indication. […] The onset temperature refers to the temperature at which the viscous moduli begins to increase in rheometry.

physchem = conditions: for solubility: organic solvent or mixture
Procedure: In order to determine a suitable solvent, the solubility of all three APIs were determined in dimethyl sulfoxide, ethyl acetate, methylene chloride (DCM), benzyl alcohol, and dimethylacetamide (DMA).

[2] = In vitro release (IVR) at 37° C. in surfactant-containing media; format: physicochemical; conditions: cumulative drug release in vitro
Procedure: The formulations that transitioned only to a viscous liquid (and not an opaque depot) also dissolved with the addition of media in in vitro release (IVR) studies. Such formulations were not further characterized for IVR profile. IVR was conducted by placing an aliquot of formulation into a 50 mL conical tube placed in a 37° C. water bath on a shaker. The formulation was left to gel before surfactant-containing media was slowly added as not to disturb any formed depot.

| SMILES | Impact of drug on gelation properties of the formulation [1] | Solubility in DCM (physchem) | solubility (physchem) [mg/mL] | In vitro release profile (in words) [2] |
| --- | --- | --- | --- | --- |
| CCCCN1CCCCC1C(=O)Nc1c(C)cccc1C (stereo not drawn) [bupivacaine, 1-butyl-N-(2,6-dimethylphenyl)piperidine-2-carboxamide] | slight impact on the onset temperatures | solubilized bupivacaine but did not maintain adequate drug solubility when mixed with the polymer system | 200 (≈ 693 mM) | – |
| CCN(CC)CC(=O)Nc1c(C)cccc1C [lidocaine, 2-(diethylamino)-N-(2,6-dimethylphenyl)acetamide] | – | – | – | faster drug release |
| CCCN1CCCC[C@H]1C(=O)Nc1c(C)cccc1C [ropivacaine, (2S)—N-(2,6-dimethylphenyl)-1-propylpiperidine-2-carboxamide] | slight decrease on the onset temperatures and max G′ values | – | 80 (≈ 292 mM) | – |
